Reference: the Deep4Chem optical property database
Values belong to the compound of their own block, whether it stands above or below them.

Experiment: solvent given as SMILES
[1] = in O=P(c1ccccc1)(c1ccccc1)c1ccccc1Oc1ccccc1P(=O)(c1ccccc1)c1ccccc1
[2] = in c1cc(-c2cccc(-n3c4ccccc4c4ccccc43)c2)cc(-n2c3ccccc3c3ccccc32)c1

Compound: O=C(c1ccc(-n2c3ccccc3c3ccccc32)cc1)c1ccc(-n2c3ccccc3c3ccccc32)cc1
fluorescence lifetime [1]: 59 ns

Compound: CCCCCCCCN1C(=O)c2ccc3c4c(-c5ccc(-n6c7ccccc7c7ccccc76)cc5)cc5c6c(cc(-c7ccc(-n8c9ccccc9c9ccccc98)cc7)c(c7ccc(c2c37)C1=O)c64)C(=O)N(CCCCCCCC)C5=O
fluorescence lifetime (in ClC(Cl)Cl): 3.3 ns

Compound: Cc1ccccc1-c1nc(-c2ccccc2C)nc(-c2ccc(N3c4ccccc4C4(c5ccccc5-c5ccccc54)c4ccccc43)cc2C)n1
fluorescence lifetime [1]: 24 ns

Compound: CCCCCCCCCCCCOc1cc2c3c(ccc4c5c(N6CCOCC6)cc6c7c(ccc(c1c34)c75)C(=O)N(C1CCCCC1)C6=O)C(=O)N(C1CCCCC1)C2=O
fluorescence lifetime (in ClC(Cl)Cl): 3.4 ns

Compound: c1ccc([B-]2(c3ccccc3)Oc3ccc4ccccc4c3-c3c4ccccc4cn[n+]32)cc1
fluorescence lifetime (in Cc1ccccc1): 9.32 ns

Compound: COc1cc2c3cc(OC)c(OC)cc3c3cc4c(C)cc(=O)oc4cc3c2cc1OC
fluorescence lifetime (in ClC(Cl)Cl): 4.6 ns

Compound: c1cc2c3ccc[n+]4cccc(c5ccc[n+](c1)c25)c34
fluorescence lifetime (in CC#N): 7.4 ns
fluorescence lifetime (in CS(C)=O): 4.4 ns
fluorescence lifetime (in C[N+](=O)[O-]): 6.2 ns
fluorescence lifetime (in O): 6.8 ns

Compound: c1ccc2c(c1)c1ccccc1n2-c1ccc2cc(-c3ccc(-c4ccc(-c5cc6ccc(-n7c8ccccc8c8ccccc87)cc6o5)cc4)cc3)oc2c1
fluorescence lifetime (in Cc1ccccc1): 0.97 ns
fluorescence lifetime (in c1ccc2c(c1)c1ccccc1n2-c1ccc(-c2ccc(-n3c4ccccc4c4ccccc43)cc2)cc1): 1.5 ns

Compound: c1ccc(-c2nc(-c3ccc(N4c5ccccc5C(c5ccccc5)(c5ccccc5)c5ccccc54)cc3)cc(-c3ccc(N4c5ccccc5C(c5ccccc5)(c5ccccc5)c5ccccc54)cc3)n2)cc1
fluorescence lifetime (in O=P(c1ccccc1)(c1ccccc1)c1ccc2oc3ccc(P(=O)(c4ccccc4)c4ccccc4)cc3c2c1): 11 ns

Compound: CC(C)[Si](C#CC1=CC2=c3cc(C#C[Si](C(C)C)(C(C)C)C(C)C)c4nc(C(F)(F)C(F)(F)C(F)(F)F)nc5c(C#C[Si](C(C)C)(C(C)C)C(C)C)cc(c3c54)C3=CC(C#C[Si](C(C)C)(C(C)C)C(C)C)=C4N=C(C(F)(F)C(F)(F)C(F)(F)F)N=C1C4C32)(C(C)C)C(C)C (configuration not stated)
fluorescence lifetime (in C1CCOC1): 2 ns

Compound: CC(C)c1cc(C(C)C)c(B2c3cc(-n4c5ccccc5c5ccccc54)ccc3N(c3ccccc3)c3ccc(-n4c5ccccc5c5ccccc54)cc32)c(C(C)C)c1
fluorescence lifetime [2]: 15 ns

Compound: CCN(CC)c1ccc(C=Cc2nc3nc4ccccc4nc3s2)cc1
fluorescence lifetime (in CCCCCCC(C)O): 0.991 ns
fluorescence lifetime (in CCOC(C)=O): 1.36 ns
fluorescence lifetime (in CO): 0.05 ns
fluorescence lifetime (in CS(C)=O): 0.42 ns
fluorescence lifetime (in Cc1ccccc1): 0.27 ns
fluorescence lifetime (in ClC(Cl)Cl): 1.31 ns
fluorescence lifetime (in ClCCl): 1.62 ns

Compound: CCCCN1C(=O)c2cc(Br)c3c4c(Br)c(Br)c5c6c(cc(Br)c(c7c(Br)c(Br)c(c2c37)C1=O)c64)C(=O)N(CCCC)C5=O
fluorescence lifetime (in ClC(Cl)Cl): 1.1 ns

Compound: Cn1cccc1-c1cc(C#N)ccc1C#N
fluorescence lifetime (in C1CCOC1): 13.1 ns
fluorescence lifetime (in CC#N): 2.8 ns
fluorescence lifetime (in CCCCCC): 7.5 ns
fluorescence lifetime (in CCCCOCCCC): 11.4 ns
fluorescence lifetime (in CCOCC): 12.6 ns

Compound: FC(F)(F)C(F)(F)C(F)(F)C1=NC2=C(Br)C=C3c4cc(Br)c5nc(C(F)(F)C(F)(F)C(F)(F)F)nc6c(Br)cc(c4c56)=C4C=C(Br)C(=N1)C2C34 (configuration not stated)
fluorescence lifetime (in C1CCOC1): 2.1 ns

Compound: Cc1cc(-c2nc(-c3ccccc3)nc(-c3ccccc3)n2)ccc1-n1c2ccccc2c2cc3c(cc21)C1c2ccccc2C3c2ccccc21
fluorescence lifetime [1]: 10.6 ns

Compound: CC(C)(C)c1cc(-c2cc3c(cc(-c4cc(C(C)(C)C)cc(C(C)(C)C)c4)n3-c3ccc(C(=C(c4ccccc4)c4ccccc4)c4ccccc4)cc3)n2-c2ccc(C(=C(c3ccccc3)c3ccccc3)c3ccccc3)cc2)cc(C(C)(C)C)c1
fluorescence lifetime (in ClCCl): 1.6 ns

More lines, now with the values ahead:

fluorescence lifetime (in CC#N): 3.95 ns
fluorescence lifetime (in CS(C)=O): 3.06 ns
fluorescence lifetime (in ClC(Cl)Cl): 4.24 ns
Compound: C#CCn1c2ccccc2c2cc(/C=C/c3c(Cl)c(C)c4n3[B-](F)(F)[N+]3=C(C)C(Cl)=C(C)C3=C4c3ccc(I)cc3)ccc21

fluorescence lifetime (in ClCCl): 2.01 ns
Compound: c1ccc(N2N=C(c3cccc4ccccc34)CC2c2ccc3ccc4cccc5ccc2c3c45)cc1 (configuration not stated)

fluorescence lifetime (in C1CCCCC1): 15 ns
Compound: Oc1cccc2ccccc12

fluorescence lifetime (in ClCCl): 2.5 ns
Compound: c1ccc(C2=Nc3cccc4[n+]3[B-](c3ccccc3)(N2)NC(c2ccccc2)=N4)cc1

fluorescence lifetime (in ClCCl): 5.7 ns
Compound: Cc1cccc(-c2c3ccccc3cc3ccccc23)n1

fluorescence lifetime (in ClCCl): 2.3 ns
Compound: Cc1ccc(O)c(-c2nc(C)c3n2CCCC3)c1

fluorescence lifetime (in O): 3 ns
Compound: CCOC(=O)c1c(CSc2ccccc2)n(C)c2cc(Br)c(O)c(CN(C)C)c12

fluorescence lifetime (in C1CCOC1): 1.43 ns
Compound: COc1cc2c(cc1-c1ccc([N+](=O)[O-])cc1)Cc1c3c(c4c(c1-2)-c1cc(OC)c(-c2ccc([N+](=O)[O-])cc2)cc1C4)C(=O)N(CCC(C)C)C3=O

fluorescence lifetime (in ClC(Cl)Cl): 1.29 ns
Compound: F[B-]1(F)OC(c2ccccc2)=Cc2ccc3ccccc3[n+]21

fluorescence lifetime (in CCCCCC): 0.45 ns
Compound: COc1ccc2c(c1)N(c1ccccc1-c1ccccc1)c1cc3c(cc1=N2)Oc1c(cc(C(C)(C)C)cc1C(C)(C)C)N=3

fluorescence lifetime (in C1CCOC1): 4.63 ns
Compound: C(=C\c1cc2ccccc2c2ccccc12)/c1c2ccccc2cc2ccccc12

fluorescence lifetime (in ClCCl): 0.86 ns
Compound: O=C1c2ccccc2C2=Nc3cccc4cccc(c34)N12

fluorescence lifetime (in C1CCOC1): 8.98 ns
fluorescence lifetime (in CO): 15.1 ns
Compound: CCOC(=O)C1=CN(c2ccccc2)C=C(C(=O)OCC)C1c1ccccc1

fluorescence lifetime (in ClCCl): 4.21 ns
Compound: c1ccc(-c2cc3cc4cccc5c(-c6ccccc6)cc6cc7cccc2c7c3c6c45)cc1

fluorescence lifetime (in C1CCCCC1): 61.8 ns
fluorescence lifetime (in CC#N): 26.2 ns
fluorescence lifetime (in CO): 41.9 ns
fluorescence lifetime (in ClC(Cl)Cl): 36.1 ns
Compound: CC1(C)CC(NCc2ccc3ccc4cccc5ccc2c3c45)CC(C)(C)N1

fluorescence lifetime (in ClCCl): 1.74 ns
Compound: CCCCc1ccc2c(c1)c1ccc3cccc4c3c1c1c2c2cccc3ccc5c6cc(CCCC)ccc6c4c1c5c32

fluorescence lifetime (in C1CCCCC1): 2.5 ns
Compound: CN(C)c1ccc2nc(-c3ccc(C=O)cc3)sc2c1

fluorescence lifetime (in O): 4 ns
Compound: COc1ccc2ccc([O-])cc2c1

fluorescence lifetime (in C1CCCCC1): 23.3 ns
fluorescence lifetime (in CC#N): 25.2 ns
fluorescence lifetime (in CO): 24.4 ns
fluorescence lifetime (in ClCCl): 21.2 ns
Compound: COc1c2ccccc2c(OC)c2c1c1c(F)cccc1n2C

fluorescence lifetime (in ClC(Cl)Cl): 2.68 ns
Compound: F[B-]1(F)OC(c2ccc(N3CCCCC3)cc2)=Cc2cccc[n+]21

fluorescence lifetime [2]: 5.5 ns
fluorescence lifetime (in c1cc(-n2c3ccccc3c3ccccc32)cc(-n2c3ccccc3c3ccccc32)c1): 5.5 ns
Compound: O=c1c2ccccc2n2c3ccc(-c4ccccc4)cc3c(=O)c3cccc1c32
